In paper PMC3353862:
≈ marks a conversion by molar mass, not a printed value.

tested on: bacterial protein synthesis (aminoacylation/translation system); assay: aminoacylation/translation (A/T) assay; assay type: biochemical; details: A/T assay, Table 1; read-out: IC50

Compound	IC50 [µM]
COc1cccc(CN2CCc3nc(-c4ccccn4)[nH]c(=O)c3C2)c1O [Compound 323197]	4.4
O=c1[nH]c(-c2ccccn2)nc2c1CN(Cc1c(F)cccc1F)CC2 [Compound 323198]	2.7
CCOc1cc2c(cc1CN1CCc3nc(-c4ccccn4)[nH]c(=O)c3C1)OCO2 [Compound 323199]	1.1
COc1ccc(CN2CCc3nc(-c4ccccn4)[nH]c(=O)c3C2)c(C)c1C [Compound 323202]	4.3
COc1cc(Cl)cc(CN2CCc3nc(-c4ccccn4)[nH]c(=O)c3C2)c1OC [Compound 323203]	2
Cc1cc(CN2CCc3nc(-c4ccccn4)[nH]c(=O)c3C2)cc(C)c1O [Compound 323204]	2.1
COc1cc(CN2CCc3nc(-c4ccccn4)[nH]c(=O)c3C2)cc2c1OCO2 [Compound 323205]	> 300

tested on: S. aureus; assay: Broth microdilution MIC testing; assay type: cell-based, Staphylococcus aureus; details: S. aureus

Compound	MIC S. aureus [mg/L]
COc1cccc(CN2CCc3nc(-c4ccccn4)[nH]c(=O)c3C2)c1O [Compound 323197]	> 128
O=c1[nH]c(-c2ccccn2)nc2c1CN(Cc1c(F)cccc1F)CC2 [Compound 323198]	> 128
CCOc1cc2c(cc1CN1CCc3nc(-c4ccccn4)[nH]c(=O)c3C1)OCO2 [Compound 323199]	128 (≈ 315 µM)
COc1ccc(CN2CCc3nc(-c4ccccn4)[nH]c(=O)c3C2)c(C)c1C [Compound 323202]	16 (≈ 42.5 µM)
COc1cc(Cl)cc(CN2CCc3nc(-c4ccccn4)[nH]c(=O)c3C2)c1OC [Compound 323203]	16 (≈ 38.8 µM)
Cc1cc(CN2CCc3nc(-c4ccccn4)[nH]c(=O)c3C2)cc(C)c1O [Compound 323204]	> 128
COc1cc(CN2CCc3nc(-c4ccccn4)[nH]c(=O)c3C2)cc2c1OCO2 [Compound 323205]	> 128

tested on: S. pneumoniae; assay: Broth microdilution MIC testing; assay type: cell-based, Streptococcus pneumoniae; details: S. pneumoniae

Compound	MIC S. pneumo [mg/L]
COc1cccc(CN2CCc3nc(-c4ccccn4)[nH]c(=O)c3C2)c1O [Compound 323197]	128 (≈ 351 µM)
O=c1[nH]c(-c2ccccn2)nc2c1CN(Cc1c(F)cccc1F)CC2 [Compound 323198]	16 (≈ 45.2 µM)
CCOc1cc2c(cc1CN1CCc3nc(-c4ccccn4)[nH]c(=O)c3C1)OCO2 [Compound 323199]	16 (≈ 39.4 µM)
COc1ccc(CN2CCc3nc(-c4ccccn4)[nH]c(=O)c3C2)c(C)c1C [Compound 323202]	4 (≈ 10.6 µM)
COc1cc(Cl)cc(CN2CCc3nc(-c4ccccn4)[nH]c(=O)c3C2)c1OC [Compound 323203]	4 (≈ 9.69 µM)
Cc1cc(CN2CCc3nc(-c4ccccn4)[nH]c(=O)c3C2)cc(C)c1O [Compound 323204]	128 (≈ 353 µM)
COc1cc(CN2CCc3nc(-c4ccccn4)[nH]c(=O)c3C2)cc2c1OCO2 [Compound 323205]	32 (≈ 81.5 µM)

tested on: E. coli tolC mutants; assay: Broth microdilution MIC testing; assay type: cell-based, Escherichia coli; details: E. coli tolC mutants

Compound	MIC E. coli tolC [mg/L]
COc1cccc(CN2CCc3nc(-c4ccccn4)[nH]c(=O)c3C2)c1O [Compound 323197]	> 128
O=c1[nH]c(-c2ccccn2)nc2c1CN(Cc1c(F)cccc1F)CC2 [Compound 323198]	32 (≈ 90.3 µM)
CCOc1cc2c(cc1CN1CCc3nc(-c4ccccn4)[nH]c(=O)c3C1)OCO2 [Compound 323199]	32 (≈ 78.7 µM)
COc1ccc(CN2CCc3nc(-c4ccccn4)[nH]c(=O)c3C2)c(C)c1C [Compound 323202]	8 (≈ 21.3 µM)
COc1cc(Cl)cc(CN2CCc3nc(-c4ccccn4)[nH]c(=O)c3C2)c1OC [Compound 323203]	8 (≈ 19.4 µM)
Cc1cc(CN2CCc3nc(-c4ccccn4)[nH]c(=O)c3C2)cc(C)c1O [Compound 323204]	> 128
COc1cc(CN2CCc3nc(-c4ccccn4)[nH]c(=O)c3C2)cc2c1OCO2 [Compound 323205]	64 (≈ 163 µM)

tested on: M. catarrhalis; assay: Broth microdilution MIC testing; assay type: cell-based, Moraxella catarrhalis; details: not given

Compound	MIC M. cat [mg/L]
COc1cccc(CN2CCc3nc(-c4ccccn4)[nH]c(=O)c3C2)c1O [Compound 323197]	16 (≈ 43.9 µM)
O=c1[nH]c(-c2ccccn2)nc2c1CN(Cc1c(F)cccc1F)CC2 [Compound 323198]	1 (≈ 2.82 µM)
CCOc1cc2c(cc1CN1CCc3nc(-c4ccccn4)[nH]c(=O)c3C1)OCO2 [Compound 323199]	1 (≈ 2.46 µM)
COc1ccc(CN2CCc3nc(-c4ccccn4)[nH]c(=O)c3C2)c(C)c1C [Compound 323202]	0.25 (≈ 0.664 µM)
COc1cc(Cl)cc(CN2CCc3nc(-c4ccccn4)[nH]c(=O)c3C2)c1OC [Compound 323203]	1 (≈ 2.42 µM)
Cc1cc(CN2CCc3nc(-c4ccccn4)[nH]c(=O)c3C2)cc(C)c1O [Compound 323204]	64 (≈ 177 µM)
COc1cc(CN2CCc3nc(-c4ccccn4)[nH]c(=O)c3C2)cc2c1OCO2 [Compound 323205]	4 (≈ 10.2 µM)

tested on: H. influenzae; assay: Broth microdilution MIC testing; assay type: cell-based, Haemophilus influenzae; details: H. influenzae

Compound	MIC H. flu [mg/L]
COc1cccc(CN2CCc3nc(-c4ccccn4)[nH]c(=O)c3C2)c1O [Compound 323197]	32 (≈ 87.8 µM)
O=c1[nH]c(-c2ccccn2)nc2c1CN(Cc1c(F)cccc1F)CC2 [Compound 323198]	8 (≈ 22.6 µM)
CCOc1cc2c(cc1CN1CCc3nc(-c4ccccn4)[nH]c(=O)c3C1)OCO2 [Compound 323199]	16 (≈ 39.4 µM)
COc1ccc(CN2CCc3nc(-c4ccccn4)[nH]c(=O)c3C2)c(C)c1C [Compound 323202]	4 (≈ 10.6 µM)
COc1cc(Cl)cc(CN2CCc3nc(-c4ccccn4)[nH]c(=O)c3C2)c1OC [Compound 323203]	8 (≈ 19.4 µM)
Cc1cc(CN2CCc3nc(-c4ccccn4)[nH]c(=O)c3C2)cc(C)c1O [Compound 323204]	32 (≈ 88.3 µM)
COc1cc(CN2CCc3nc(-c4ccccn4)[nH]c(=O)c3C2)cc2c1OCO2 [Compound 323205]	16 (≈ 40.8 µM)

tested on: E. coli modified with PMBN; assay: Broth microdilution MIC testing; assay type: cell-based, Escherichia coli; details: E. coli modified with PMBN

Compound	MIC E. coli +PMBP [mg/L]
COc1cccc(CN2CCc3nc(-c4ccccn4)[nH]c(=O)c3C2)c1O [Compound 323197]	> 128
O=c1[nH]c(-c2ccccn2)nc2c1CN(Cc1c(F)cccc1F)CC2 [Compound 323198]	64 (≈ 181 µM)
CCOc1cc2c(cc1CN1CCc3nc(-c4ccccn4)[nH]c(=O)c3C1)OCO2 [Compound 323199]	32 (≈ 78.7 µM)
COc1ccc(CN2CCc3nc(-c4ccccn4)[nH]c(=O)c3C2)c(C)c1C [Compound 323202]	32 (≈ 85 µM)
COc1cc(Cl)cc(CN2CCc3nc(-c4ccccn4)[nH]c(=O)c3C2)c1OC [Compound 323203]	16 (≈ 38.8 µM)
Cc1cc(CN2CCc3nc(-c4ccccn4)[nH]c(=O)c3C2)cc(C)c1O [Compound 323204]	> 128
COc1cc(CN2CCc3nc(-c4ccccn4)[nH]c(=O)c3C2)cc2c1OCO2 [Compound 323205]	64 (≈ 163 µM)

tested on: E. faecalis; assay: Broth microdilution MIC testing; assay type: cell-based, Enterococcus faecalis; details: E. faecalis

Compound	MIC E. fae [mg/L]
COc1cccc(CN2CCc3nc(-c4ccccn4)[nH]c(=O)c3C2)c1O [Compound 323197]	> 128
O=c1[nH]c(-c2ccccn2)nc2c1CN(Cc1c(F)cccc1F)CC2 [Compound 323198]	> 128
CCOc1cc2c(cc1CN1CCc3nc(-c4ccccn4)[nH]c(=O)c3C1)OCO2 [Compound 323199]	128 (≈ 315 µM)
COc1ccc(CN2CCc3nc(-c4ccccn4)[nH]c(=O)c3C2)c(C)c1C [Compound 323202]	32 (≈ 85 µM)
COc1cc(Cl)cc(CN2CCc3nc(-c4ccccn4)[nH]c(=O)c3C2)c1OC [Compound 323203]	64 (≈ 155 µM)
Cc1cc(CN2CCc3nc(-c4ccccn4)[nH]c(=O)c3C2)cc(C)c1O [Compound 323204]	> 128
COc1cc(CN2CCc3nc(-c4ccccn4)[nH]c(=O)c3C2)cc2c1OCO2 [Compound 323205]	128 (≈ 326 µM)
